Experimental data: patent US4939134A, “26-aminocholesterol and derivatives and analogs thereof in the regulation of cholesterol accumulation in body tissue” (New York University, priority 1988, dated 1990)

What was measured:
Human Fibroblasts = experiment: Total cell cholesterol and percent esterified cholesterol in human fibroblasts; assay type: cell-based; settings: 96 h, n = 3
Protocol: Normal LDLR(+) human fibroblasts (GM3440) were obtained from the National Institute of General Medical Sciences Human Genetic Cell Repository. Stock fibroblast monolayers were maintained in T-75 disposable Nunc flasks, in a medium comprising 10 ml of MEM (Eagle's Minimum Essential Medium with Earl's salts, pH 7.4) supplemented with 10% (v/v) fetal bovine serum (FBS), 2% (v/v) non-essential and essential amino acids, 1% (v/v) MEM vitamins, 1% L-glutamine (292 ug/ml), 1% penicillin (100 U/ml)-streptomycin (100 ug/ml). The fibroblast stock was maintained at 37° C. in a humidified atmosphere of 5% CO2 and 95% air.
For experiments using fibroblasts, confluent stock cultures (5-18 passages) were washed once with Dulbecco's PBS (phosphate buffered saline) prior to the addition of 3 ml aliquots of experimental MEM containing 25% (v/v) D2 O, 9% (v/v) dilapidated FBS, 1% FBS (v/v), 1% MEM vitamins and L-glutamine, and 2% of essential and non-essential amino acids and 20 mM HEPES buffer.
(§1) The fibroblast and hepatoblastoma cells were cultured in media containing 25% D2 O and 1% FBS in order to determine de novo cholesterol synthesis under conditions that permit receptor mediated cholesterol transport, according to the method of Easterman & Javitt et al., J. Lipid Res., 26: 950-954 (1985). Dish cultures of each cell type were prepared, and 26-aminocholesterol, dissolved in N,N-dimethylformamide (DMF, 9 ul per dish, 0.3% v/v) was added to each culture. The cells were then grown to confluence (96 hours, day 5). […] Duplicate or triplicate dishes containing 9 ul of DMF, but without 26-aminocholesterol, were used as controls.
After 96 hours of incubation, medium was removed from the cell cultures, and the cells were washed with Dulbecco's PBS and were harvested with 0.05% trypsin - 0.02% EDTA. The protease was deactivated with an equivolume aliquot of soybean trypsin inhibitor, and the resulting cell suspension was centrifuged for 5 minutes at 500xg. An internal standard of 5B-cholestan-3B-ol was added to the pellets prior to extraction with an 8:4:3 chloroform:methanol:water Folch mixture, as described in Folch et al., J. Biol. Chem., 266: 497-509 (1957). An aliquot of the extract was blown to dryness under nitrogen and silylated with 2:1:1 MSTFA (a sylated reagent supplied by Pierce Co.): toluene:-pyridine. Free cholesterol was determined by gas-liquid chromatography (GLC) on a Perkin-Elmer capillary gas-liquid chromatography model 8320 fitted with a 20 m DE-1 methylsilicon glass column (Supelco). The remaining extract was dried and saponified with 2% ethanolic KOH at 80° C. for one hour. The […] was then re-extracted and total cholesterol was measured by GLC after silylation. Cholesterol ester was calculated as the difference between the total and free cholesterol determinations. Newly synthesized cholesterol was determined by GLC-MS isotope mass ratios, using a Hewlett-Packard GC-MS spectrometer model 5890 fitted with DB-1 methyl silicon 0.18 i.d. 20 m glass column (Supelco), according to the method of J. Lipid. Res., 26: 950-954, supra. […]

HepG2 Cells = experiment: Total cell cholesterol in HepG2 hepatocytes; assay type: cell-based, human; settings: 96 h, n = 3
From the text: HepG2 cells were obtained from Dr. Barbara Knowles of the Wistar Institute, Pennsylvania. The HepG2 stock monolayers were maintained under the same conditions as the fibroblast monolayers, in a medium comprising MEM supplemented with 10% heat-inactivated FBS, and 1% (v/v) each of penicillin-streptomycin solution, non-essential and essential amino acids, and L-glutamine.
For experiments using HepG2 cells, confluent stock monolayers were washed once with Dulbecco's PBS, dissociated with 0.05-0.02% trypsin-EDTA followed by treatment with deoxyribonuclease I (0.1%), and were seeded (3.0×10^6) under identical conditions. The experimental MEM contained 25% (v/v) D2 O, 9% (v/v) delipidated FBS, and 1% (v/v) each of heat-inactivated FBS, penicillin-streptomycin, essential and non-essential amino acids, L-glutamine and 20 mM HEPES.
as §1
After 96 hours of incubation, medium was removed from the cell cultures, and the cells were washed with Dulbecco's PBS and were harvested with 0.05% trypsin - 0.02% EDTA. The protease was deactivated with an equivolume aliquot of soybean trypsin inhibitor, and the resulting cell suspension was centrifuged for 5 minutes at 500xg. An internal standard of 5B-cholestan-3B-ol was added to the pellets prior to extraction with an 8:4:3 chloroform:methanol:water Folch mixture, as described in Folch et al., J. Biol. Chem., 266: 497-509 (1957). An aliquot of the extract was blown to dryness under nitrogen and silylated with 2:1:1 MSTFA (a sylated reagent supplied by Pierce Co.): toluene:-pyridine. Free cholesterol was determined by gas-liquid chromatography (GLC) on a Perkin-Elmer capillary gas-liquid chromatography model 8320 fitted with a 20 m DE-1 methylsilicon glass column (Supelco). The remaining extract was dried and saponified with 2% ethanolic KOH at 80° C. for one hour. The […] was then re-extracted and total cholesterol was measured by GLC after silylation. Cholesterol ester was calculated as the difference between the total and free cholesterol determinations. Newly synthesized cholesterol was determined by GLC-MS isotope mass ratios, using a Hewlett-Packard GC-MS spectrometer model 5890 fitted with DB-1 methyl silicon 0.18 i.d. 20 m glass column (Supelco), according to the method of J. Lipid. Res., 26: 950-954, supra.
For purposes of comparison, ^125 I-LDL and cholesterol assays were also conducted in cultures prepared according to the above methods, but incubated with 26-hydroxycholesterol in one set of experiments and with the sterol 26-thiacholesterol in another set of experiments. These sterols were obtained according to known methods, similar to those described above for 26-aminocholesterol.

Row | Compound | % ESTER (Percent Esterified Cholesterol) (Human Fibroblasts; 0.156 uM) | TOTAL CHOLESTEROL (Human Fibroblasts; 0.156 uM) | % ESTER (Percent Esterified Cholesterol) (Human Fibroblasts; 0.312 uM) | TOTAL CHOLESTEROL (Human Fibroblasts; 0.312 uM) | % ESTER (Percent Esterified Cholesterol) (Human Fibroblasts; 0.625 uM) | TOTAL CHOLESTEROL (Human Fibroblasts; 0.625 uM) | TOTAL CHOLESTEROL (HepG2 Cells; 0.156 uM) | TOTAL CHOLESTEROL (HepG2 Cells; 0.312 uM) | TOTAL CHOLESTEROL (HepG2 Cells; 0.625 uM) | % ESTER (Percent Esterified Cholesterol) (Human Fibroblasts; 5.0 uM) | TOTAL CHOLESTEROL (Human Fibroblasts; 5.0 uM) | % ESTER (Percent Esterified Cholesterol) (Human Fibroblasts; 10.0 uM) | TOTAL CHOLESTEROL (Human Fibroblasts; 10.0 uM) | % ESTER (Percent Esterified Cholesterol) (Human Fibroblasts; 20.0 uM) | TOTAL CHOLESTEROL (Human Fibroblasts; 20.0 uM) | TOTAL CHOLESTEROL (HepG2 Cells; 5.0 uM) | TOTAL CHOLESTEROL (HepG2 Cells; 10.0 uM) | TOTAL CHOLESTEROL (HepG2 Cells; 20.0 uM)
1 | C[C@@H](CN)CCC[C@@H](C)[C@H]1CC[C@H]2[C@@H]3CC=C4C[C@@H](O)CC[C@]4(C)[C@H]3CC[C@]12C [26-NH2, 26-aminocholesterol] | 26.4% | 27.9 +/- 5.3 ug cholesterol per mg cell pro | 18.6% | 31.5 +/- 6.1 ug cholesterol per mg cell pro | 6.4% | 20.3 +/- 6.4 ug cholesterol per mg cell pro | 30.6 +/- 3.7 ug cholesterol per mg cell pro | 25.0 +/- 0.6 ug cholesterol per mg cell pro | 28.8 +/- 1.8 ug cholesterol per mg cell pro | – | – | – | – | – | – | – | – | –
2 | CC(CO)CCC[C@@H](C)[C@H]1CC[C@H]2[C@@H]3CC=C4C[C@@H](O)CC[C@]4(C)[C@H]3CC[C@]12C (stereo partly drawn) [26-OH, 26-hydroxycholesterol] | – | – | – | – | 28.7% | 24.7 +/- 2.8 ug cholesterol per mg cell pro | – | – | 24.7 +/- 2.8 ug cholesterol per mg cell pro | – | – | – | – | – | – | – | – | –
3 | CC(CS)CCC[C@@H](C)[C@H]1CC[C@H]2[C@@H]3CC=C4C[C@@H](O)CC[C@]4(C)[C@H]3CC[C@]12C (stereo partly drawn) [26-SH] | – | – | – | – | – | – | – | – | – | 13.6% | 26.0 +/- 1.7 ug cholesterol per mg cell pro | 31.1% | 31.3 + /- 4.5 ug cholesterol per mg cell pro | 33.1% | 26.1 +/- 1.0 ug cholesterol per mg cell pro | 25.5 +/- 4.3 ug cholesterol per mg cell pro | 27.4 +/- 4.0 ug cholesterol per mg cell pro | 23.2 +/- 1.2 ug cholesterol per mg cell pro
